Reference: patent publication US9023789B2, “Amylin analogs and pharmaceutical compositions thereof” (Novo Nordisk A/S, priority 2012, dated 2015)
Numbered stars: 1 amine (or outer) side, 2 acyl side, 3 side chain; on linkers, the order of the positions; unused ones are H or OH. Bridge positions count the residues as written; N and C are the ends. Side chains are listed from the residue outwards. Peptide text beside a SMILES is read from it. * marks the point of attachment. C20 diacid = O=C(O)CCCCCCCCCCCCCCCCCCC(=O)*; γGlu = O=C(O)[C@H](CCC(=O)[*:2])N[*:1]; AEEA = NCCOCCOCC(=O)O

How the values were obtained:
[1] = target: T1, human calcitonin receptor (Homo sapiens, UniProt P30988); assay: ASSAY (VII) binding to the human calcitonin receptor (SPA, 125I-Calcitonin); conditions: read-out: hCTR bind IC50;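 also: cell membranes (35 ng/µL) combined with SPA beads in 40 µL of pH 7.4 Hepes buffer, 384-well format, signal counted on a TopCounter instrument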
T1 construct: expressed in transfected cells
T1 sequence (P30988 25-474): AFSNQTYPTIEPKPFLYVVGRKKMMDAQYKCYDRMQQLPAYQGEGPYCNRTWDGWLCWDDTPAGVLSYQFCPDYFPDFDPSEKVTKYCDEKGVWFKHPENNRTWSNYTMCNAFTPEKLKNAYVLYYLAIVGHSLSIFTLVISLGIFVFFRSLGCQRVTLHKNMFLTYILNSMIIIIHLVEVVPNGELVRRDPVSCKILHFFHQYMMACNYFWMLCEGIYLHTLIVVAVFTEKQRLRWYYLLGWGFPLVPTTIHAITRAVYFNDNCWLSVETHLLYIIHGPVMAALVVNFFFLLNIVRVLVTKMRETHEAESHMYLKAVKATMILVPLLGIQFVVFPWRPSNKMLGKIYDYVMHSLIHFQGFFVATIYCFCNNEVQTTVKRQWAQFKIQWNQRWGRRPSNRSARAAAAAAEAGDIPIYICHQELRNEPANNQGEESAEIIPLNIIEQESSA

[2] = target: T2, human amylin 3(a) receptor (human calcitonin receptor + RAMP-3) in BHK570 cells (Homo sapiens, UniProt O60896+P30988); assay: ASSAY (II)a functional assay, human amylin receptor (CRE luciferase); assay type: cell-based; conditions: for EC50: human amylin receptor functional potency, assay (II), read-out: hAmylin-R funct. EC50
T2 construct: expressed in transfected cells
In short: (§1)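 Readout is luminescence from a cAMP-responsive CRE-luc reporter, developed with LucLite for 30 min at room temperature. Cells were treated for 3 h at 37 °C in 10% FBS/DMEM buffered with 10 mM Hepes (pH 7.4).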

[3] = ASSAY (III) ThT fibrillation assay for physical stability; assay type: physicochemical
In short: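 Physical stability scored by ThT fluorescence (444 nm excitation, 485 nm emission) tracked every 20 min during 37 °C incubation with 960 rpm shaking, ThT at 1 μM final. Values are replicate means with SD at chosen times; HPLC against pramlintide standard gives initial and post-assay soluble concentrations.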

[4] = target: T3, human calcitonin (a) receptor in BHK570 cells (Homo sapiens, UniProt P30988); assay: ASSAY (II)a functional assay, human calcitonin receptor (CRE luciferase); assay type: cell-based; conditions: read-out: hCTR funct. EC50
T3 construct: expressed in transfected cells
T3 sequence (P30988 25-474): T1 sequence (P30988 25-474)
In short: as §1

[5] = hCTR funct. EC50 divided by hAmylin-R funct. EC50
[6] = hCTR funct. EC50 over hAmylin-R funct. EC50
[7] = human functional selectivity: hCTR funct. EC50 / hAmylin-R funct. EC50
[8] = hCTR funct. EC50 / hAmylin-R funct. EC50

T2 sequence (O60896 24-148, one chain of several): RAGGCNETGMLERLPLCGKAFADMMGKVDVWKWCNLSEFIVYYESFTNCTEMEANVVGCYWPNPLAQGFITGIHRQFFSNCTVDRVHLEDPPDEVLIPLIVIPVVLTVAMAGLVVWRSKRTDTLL

| SMILES | IC50 [1] [nM] | Ratio hCT/hAmylin funct. [2, 5] | Ratio hCT/hAmylin funct. [2, 6] | EC50 [2] [nM] | Ratio hCT/hAmylin funct. [2, 7] | ThT pH 4.0 lag time (h) [3] [h] | EC50 [4] [nM] | Ratio hCT/hAmylin funct. [2, 8] |
| --- | --- | --- | --- | --- | --- | --- | --- | --- |
| CC[C@H](C)[C@H](NC(=O)[C@H](C)NC(=O)CNC(=O)[C@H](Cc1ccccc1)NC(=O)[C@H](CC(N)=O)NC(=O)[C@@H]1CCCN1C(=O)[C@H](CO)NC(=O)[C@H](CO)NC(=O)[C@H](Cc1c[nH]cn1)NC(=O)[C@H](CCCNC(=N)N)NC(=O)[C@H](CC(C)C)NC(=O)[C@H](Cc1ccccc1)NC(=O)[C@H](Cc1c[nH]cn1)NC(=O)[C@H](C)NC(=O)[C@H](CC(C)C)NC(=O)[C@H](CCCNC(=N)N)NC(=O)[C@H](CCC(N)=O)NC(=O)[C@@H](NC(=O)[C@H](C)NC(=O)[C@@H]1CSSC[C@H](NC(=O)[C@@H](N)CCCCNC(=O)COCCOCCNC(=O)CC[C@H](NC(=O)CCCCCCCCCCCCCCCCCCC(=O)O)C(=O)O)C(=O)N[C@@H](CC(N)=O)C(=O)N[C@@H]([C@@H](C)O)C(=O)N[C@@H](C)C(=O)N[C@@H]([C@@H](C)O)C(=O)N1)[C@@H](C)O)C(=O)N1CCC[C@H]1C(=O)N[C@@H](CO)C(=O)N[C@@H](CO)C(=O)N[C@H](C(=O)N[C@@H](CC(N)=O)C(=O)N[C@H](C(=O)NCC(=O)N[C@@H](Cc1c[nH]cn1)C(=O)N[C@@H](CC(N)=O)C(=O)N[C@H](C(=O)N[C@@H](Cc1ccc(O)cc1)C(N)=O)[C@@H](C)O)C(C)C)[C@@H](C)O [Example 80] (H-K([AEEA-γGlu-C20 diacid])CNTATCATQRLAHFLRHSSPNFGAIPSSTNVGHNTY-NH2; disulfide 2-7; N-terminus assumed) | 19.8 | 15.4 | 15.4 | 0.139 | 15.4 | 28 | 2.14 |  |
| CC[C@H](C)[C@H](NC(=O)[C@H](C)NC(=O)CNC(=O)[C@H](Cc1ccccc1)NC(=O)[C@H](CC(N)=O)NC(=O)[C@@H]1CCCN1C(=O)[C@H](CO)NC(=O)[C@H](CO)NC(=O)[C@H](Cc1c[nH]cn1)NC(=O)[C@H](CCCNC(=N)N)NC(=O)[C@H](CC(C)C)NC(=O)[C@H](Cc1ccccc1)NC(=O)[C@H](CCC(=O)O)NC(=O)[C@H](C)NC(=O)[C@H](CC(C)C)NC(=O)[C@H](CCCNC(=N)N)NC(=O)[C@H](CCC(N)=O)NC(=O)[C@@H](NC(=O)[C@H](C)NC(=O)[C@@H]1CSSC[C@H](NC(=O)[C@H](CCCCN)NC(=O)CC[C@H](NC(=O)CCCCCCCCCCCCCCCCCCC(=O)O)C(=O)O)C(=O)N[C@@H](CC(N)=O)C(=O)N[C@@H]([C@@H](C)O)C(=O)N[C@@H](C)C(=O)N[C@@H]([C@@H](C)O)C(=O)N1)[C@@H](C)O)C(=O)N1CCC[C@H]1C(=O)N[C@@H](CO)C(=O)N[C@@H](CO)C(=O)N[C@H](C(=O)N[C@@H](CC(N)=O)C(=O)N[C@H](C(=O)NCC(=O)N[C@@H](CO)C(=O)N[C@@H](Cc1c[nH]cn1)C(=O)N[C@H](C(=O)N[C@@H](Cc1ccc(O)cc1)C(N)=O)[C@@H](C)O)C(C)C)[C@@H](C)O [Example 18] ({C20 diacid-γGlu}-KCNTATCATQRLAEFLRHSSPNFGAIPSSTNVGSHTY-NH2; disulfide 2-7) | 5.09 | 4.8 | 4.8 | 0.154 | 4.8 | 45 | 0.742 | 4.8 |
| CC[C@H](C)[C@H](NC(=O)[C@H](C)NC(=O)CNC(=O)[C@H](Cc1ccccc1)NC(=O)[C@H](CC(N)=O)NC(=O)[C@@H]1CCCN1C(=O)[C@H](CO)NC(=O)[C@H](CO)NC(=O)[C@H](Cc1c[nH]cn1)NC(=O)[C@H](CCCNC(=N)N)NC(=O)[C@H](CC(C)C)NC(=O)[C@H](Cc1ccccc1)NC(=O)[C@H](C)NC(=O)[C@H](C)NC(=O)[C@H](CC(C)C)NC(=O)[C@H](CCCNC(=N)N)NC(=O)[C@H](CCC(N)=O)NC(=O)[C@@H](NC(=O)[C@H](C)NC(=O)[C@@H]1CSSC[C@H](NC(=O)[C@@H](N)CCCCNC(=O)CC[C@H](NC(=O)CCCCCCCCCCCCCCCCCCC(=O)O)C(=O)O)C(=O)N[C@@H](CC(N)=O)C(=O)N[C@@H]([C@@H](C)O)C(=O)N[C@@H](C)C(=O)N[C@@H]([C@@H](C)O)C(=O)N1)[C@@H](C)O)C(=O)N1CCC[C@H]1C(=O)N[C@@H](CO)C(=O)N[C@@H](CO)C(=O)N[C@H](C(=O)N[C@@H](CC(N)=O)C(=O)N[C@H](C(=O)NCC(=O)N1CCC[C@H]1C(=O)N[C@@H](CC(N)=O)C(=O)N[C@H](C(=O)N[C@@H](Cc1ccc(O)cc1)C(N)=O)[C@@H](C)O)C(C)C)[C@@H](C)O [Example 94] (H-K([γGlu-C20 diacid])CNTATCATQRLAAFLRHSSPNFGAIPSSTNVGPNTY-NH2; disulfide 2-7 (inferred)) | 6.86 | 4.5 |  | 0.07 | 4.5 | 10 | 0.316 | 4.5 |
| CC[C@H](C)[C@H](NC(=O)[C@H](C)NC(=O)CNC(=O)[C@H](Cc1ccccc1)NC(=O)[C@H](CC(N)=O)NC(=O)[C@@H]1CCCN1C(=O)[C@H](CO)NC(=O)[C@H](CO)NC(=O)[C@H](Cc1c[nH]cn1)NC(=O)[C@H](CCCNC(=N)N)NC(=O)[C@H](CC(C)C)NC(=O)[C@H](Cc1ccccc1)NC(=O)[C@H](CC(N)=O)NC(=O)[C@H](C)NC(=O)[C@H](CC(C)C)NC(=O)[C@H](CCCNC(=N)N)NC(=O)[C@H](CCC(N)=O)NC(=O)[C@@H](NC(=O)[C@H](C)NC(=O)[C@@H]1CSSC[C@H](NC(=O)[C@@H](N)CCCCNC(=O)COCCOCCNC(=O)CC[C@H](NC(=O)CCCCCCCCCCCCCCCCCCC(=O)O)C(=O)O)C(=O)N[C@@H](CC(N)=O)C(=O)N[C@@H]([C@@H](C)O)C(=O)N[C@@H](C)C(=O)N[C@@H]([C@@H](C)O)C(=O)N1)[C@@H](C)O)C(=O)N1CCC[C@H]1C(=O)N[C@@H](CO)C(=O)N[C@@H](CO)C(=O)N[C@H](C(=O)N[C@@H](CC(N)=O)C(=O)N[C@H](C(=O)NCC(=O)N[C@@H](Cc1c[nH]cn1)C(=O)N[C@@H](CC(N)=O)C(=O)N[C@H](C(=O)N[C@@H](Cc1ccc(O)cc1)C(N)=O)[C@@H](C)O)C(C)C)[C@@H](C)O [Example 76] (H-K([AEEA-γGlu-C20 diacid])CNTATCATQRLANFLRHSSPNFGAIPSSTNVGHNTY-NH2; disulfide 2-7; N-terminus assumed) | 17.2 | 24.8 | 24.8 | 0.297 | 24.8 | 22 | 7.37 |  |
